Bridges are numbered along the chain shown (N, C = ends). The star is where a group is joined. Biotin = O=C1N[C@H]2[C@H](CS[C@H]2CCCCC(=O)*)N1
What was measured:
NADPH oxidase = test system: NADPH oxidase; set-up: method as in 8 sources, one per row (each row's own in cited_ref): ref Shpungin et al., [1989] ||| ref Bellavite et al., [1983]; Gabig and Lefker, [1984] ||| ref Pick et al., [1987] ||| ref Le Cabec and Maridonneau-Parini, [1995] ||| ref Nishida et al., [2005] ||| ...; conditions: ref Paes et al., [2011], cited from earlier work
[1] = PDI reductase activity, DE-GSSG reduction; type: biochemical; conditions: for PDI activity of isolated Nox2 peptides: DE-GSSG reduction over a wide concentration range
[2] = test system: recombinant 6His-p67^phox; test: Peptide–protein binding assay / peptide walking, p67phox; conditions: statement of Results section
[3] = test system: recombinant 6His-p67^phox; conditions: manuscript in preparation, cited from earlier work; for binding of p67phox to overlapping 15-mer peptides (peptide walking): ref Dahan and Pick; for binding of p67phox after introduction of intramolecular disulfide bond between C369 and C371 / binding of p67phox after reduction of the disulfide bond and alkylation of the reduced thiols: ref Fradin et al., [2011], [2012], Pick, Fradin and Pick
Description: The cytosolic segment of Nox2 is also known as the dehydrogenase region (DHR) by virtue of the fact that it contains the NADPH- and FAD-binding sites and is homologous to the prokaryotic protein ferredoxin-NADP^+ reductase. The DHR comprises binding sites for p47^phox and Rac but, so far, there is no solid evidence for the identity of the binding site(s) for p67^phox. We approached this question by applying the “peptide walking” methodology (Joseph and Pick, [1995]; Dahan et al., [2012]; Dahan and Pick, [2012]). […] An important observation was that enhanced binding of p67^phox was evident only when the disulfide bond was established between two non-adjacent cysteines and between cysteines present in the same peptide; when the CGC tria ...

p67^phox(1–526) [4] = test: Peptide–protein binding assay, p67phox(1–526); conditions: native (non-disulfide) peptide
p67^phox(1–212) [5] = test: Peptide–protein binding assay, p67phox(1–212); conditions: native (non-disulfide) peptide
p67^phox(1–526) [6] = test: Effect of thiol reagents on binding of p67phox(1–526) to Nox2 peptide 24; conditions: 1 h room temperature
[7] = target: NADPH oxidase (macrophage membrane liposomes, cytochrome b558) (Cavia porcellus, UniProt H0UXC6); type: biochemical, guinea pig
oxidized insulin = test: Insulin reduction (turbidimetric) assay; type: biochemical; conditions: recombinant PDI
p67^phox(1–212) [8] = test: Protein–protein binding assay, p67phox(1–212); conditions: homodimers, 0.5 μM, p67phox coated at 0.5 μM; one characteristic experiment (Figure 5B)
p67^phox(1–526) [9] = test: Protein–protein binding assay, p67phox(1–526); conditions: homodimers, 0.5 μM, p67phox coated at 0.5 μM; one characteristic experiment (Figure 5A)
p67^phox(1–212) [10] = target: T1, p67^phox(1–212) (UniProt P19878 1-212); test: ELISA; peptide—protein binding assay as a1, with peptide 24 and the modified peptides, all in the reduced form, subjected to oxidation by 1 mM H2O2; conditions: both partners purified
T1 construct: contains four cysteines (40, 45, 121, 165); source: E. coli, purified (Nickel Sepharose); not shown: 6His, N-terminal, kept
T1 sequence (looked up): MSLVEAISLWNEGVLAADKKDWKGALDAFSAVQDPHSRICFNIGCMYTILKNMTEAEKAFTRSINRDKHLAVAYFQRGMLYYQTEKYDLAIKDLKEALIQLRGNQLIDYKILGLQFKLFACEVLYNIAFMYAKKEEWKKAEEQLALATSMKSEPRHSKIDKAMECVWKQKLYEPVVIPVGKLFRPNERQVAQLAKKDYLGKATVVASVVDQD

## oxidized PDI: exogenous oxidized PDI
NADPH oxidase
  effect of exogenous PDI on oxidase activation in vitro: enhance

## IVGDWTEGLFNACGC [peptide 24, 15-mer Nox2 peptide, residues 357–371, CGC triad at C-terminus]
[1]
  PDI activity of isolated Nox2 peptides: No PDI activity
[2]
  increase in binding of p67phox on introduction of intramolecular disulfide bond linking C369 and C371: marked increase
[3]
  binding of p67phox to overlapping 15-mer peptides (peptide walking): binds preferentially
  binding of p67phox after introduction of intramolecular disulfide bond between C369 and C371: marked increase
  binding of p67phox after reduction of the disulfide bond and alkylation of the reduced thiols: totally abolished
p67^phox(1–526) [4]
  binding of p67phox(1–526): low affinity
p67^phox(1–212) [5]
  binding of p67phox(1–212): low affinity

## CN(C)C(=O)/N=N/C(=O)N(C)C [diamide]
p67^phox(1–526) [6]; NEM 0.1 mM or diamide 5 mM, three experiments (Figure 2A,B)
  effect of pretreatment of p67phox on low affinity binding to native form of peptide 24: suppressed
p67^phox(1–526) [6]; p67^phox(1–526) 1.5 μM, diamide 5 mM, three experiments (Figure 2B)
  effect of diamide pretreatment of p67phox on binding to peptide 24 in the disulfide form: totally abolished

## reduced PDI: exogenous reduced PDI
NADPH oxidase
  effect of exogenous PDI on oxidase activation in vitro: diminish

## 16F16
[7]
  inhibition of oxidase activation, in words: Lack of an inhibitory effect

## PDIA1: Recombinant PDI A1 (human), made in E. coli [reference compound]
[1]; 10 nM, DE-GSSG 0.8 μM, DTT 12.5 μM, pH 7.0, 24°C, mean ± SEM of 4 (PDIA1), 3 (PDIA3) experiments
  Vmax, PDI reductase activity (Figure 7C,D): 37,303 ± 1279
[1]; extrapolation of Vmax at 10 nM PDI to Vmax with 1 μM NusA-Nox2(357–570)
  reductase activity relative to NusA-Nox2(357–570): about 75 times
Oxidized insulin
  concentration down to which activity could be measured in insulin reduction assay: 10 nM

## NC(=O)C1=CN([C@@H]2O[C@H](COP(=O)(O)OP(=O)(O)OC[C@H]3O[C@@H](n4cnc5c(N)ncnc54)[C@H](OP(=O)(O)O)[C@@H]3O)[C@@H](O)[C@H]2O)C=CC1 [NADPH]
[1]; up to 125 μM
  replacement of DTT in the DE-GSSG reduction assay: could not be replaced

## peptide 28: 15-mer Nox2 peptide, residues 369–383, CGC triad at N-terminus (CGCDKQEFQDAWKLP; UniProt P04839 369-383, looked up, fragment)
[1]
  PDI activity of isolated Nox2 peptides: No PDI activity
[2]
  increase in binding of p67phox on introduction of intramolecular disulfide bond linking C369 and C371: marked increase
[3]
  binding of p67phox to overlapping 15-mer peptides (peptide walking): binds preferentially
  binding of p67phox after introduction of intramolecular disulfide bond between C369 and C371: marked increase
  binding of p67phox after reduction of the disulfide bond and alkylation of the reduced thiols: totally abolished
p67^phox(1–526) [4]
  binding of p67phox(1–526): low affinity
p67^phox(1–212) [5]
  binding of p67phox(1–212): low affinity

B1: scrambled RNAse: ribonuclease A, with scrambled disulfide bonds from bovine pancreas (protein, UniProt P61823 27-150, looked up)
Ribonuclease pancreatic: KETAAAKFERQHMDSSTSAASSSNYCNQMMKSRNLTKDRCKPVNTFVHESLADVQAVCSQKNVACKNGQTNCYQSYSTMSITDCRETGSSKYPNCAYKTTQANKHIIVACEGNPYVPVHFDASV
modifications: scrambled disulfide bonds
notes: ribonuclease A, with scrambled disulfide bonds from bovine pancreas
[7]
  IC50, NADPH oxidase activation: could not be determined
  inhibition of oxidase activation, in words: ineffective
NADPH oxidase; neutrophil membranes and recombinant cytosolic components
  inhibition of oxidase activation, amphiphile-dependent cell-free system: inhibit oxidase activation

B2: NusA-Nox2(372–570): fusion protein of NusA and Nox2 residues 372–570, lacks the CGC triad (protein)
chain: DKQEFQDAWKLPKIAVDGPFGTASEDVFSYEVVMLVGAGIGVTPFASILKSVWYKYCNNATNLKLKKIYFYWLCRDTHAFEWFADLLQLLESQMQERNNAGFLSYNIYLTGWDESQANHFAVHHDEEKDVITGLKQKTLYGRPNWDNEFKTIASQHPNTRIGVFLCGPEALAETLSKQSISNSESGPRGVHFIFNKENF
modifications: left off: NusA (E. coli), N-terminal, kept | His tag (from the purification on Nickel Sepharose), end not stated, state not stated
notes: fusion protein of NusA and Nox2 residues 372–570, lacks the CGC triad
[1]; 2 μM (Figure 6C)
  loss of PDI activity: almost complete loss of PDI activity
[1]; 2 μM, DE-GSSG 800 nM, DTT 12.5 μM, one characteristic experiment, DTT only 26,248
  Vmax, PDI reductase activity (Figure 6C): 31,920 milli relative fluorescence units per min

B3: NusA-Nox2(328–570): fusion protein of NusA and Nox2 residues 328–570 (protein)
chain: KCPKVSKLEWHPFTLTSAPEEDFFSIHIRIVGDWTEGLFNACGCDKQEFQDAWKLPKIAVDGPFGTASEDVFSYEVVMLVGAGIGVTPFASILKSVWYKYCNNATNLKLKKIYFYWLCRDTHAFEWFADLLQLLESQMQERNNAGFLSYNIYLTGWDESQANHFAVHHDEEKDVITGLKQKTLYGRPNWDNEFKTIASQHPNTRIGVFLCGPEALAETLSKQSISNSESGPRGVHFIFNKENF
modifications: left off: NusA (E. coli), N-terminal, kept | His tag (from the purification on Nickel Sepharose), end not stated, state not stated
p67^phox(1–212) [8]
  binding of NusA-Nox2 to p67phox(1–212): significant binding
p67^phox(1–526) [9]
  binding of NusA-Nox2 to p67phox(1–526): significant binding

B4: Nox2 peptide 24 (357–371) with an intramolecular disulfide bond between C369 and C371 (peptide)
peptide: Biotin-SGSGIVGDWTEGLFNACGC-NH2
modifications: disulfide 17-19
SMILES: CC[C@H](C)[C@H](NC(=O)CNC(=O)[C@H](CO)NC(=O)CNC(=O)[C@H](CO)NC(=O)CCCC[C@@H]1SC[C@@H]2NC(=O)N[C@@H]21)C(=O)N[C@H](C(=O)NCC(=O)N[C@@H](CC(=O)O)C(=O)N[C@@H](Cc1c[nH]c2ccccc12)C(=O)N[C@H](C(=O)N[C@@H](CCC(=O)O)C(=O)NCC(=O)N[C@@H](CC(C)C)C(=O)N[C@@H](Cc1ccccc1)C(=O)N[C@@H](CC(N)=O)C(=O)N[C@@H](C)C(=O)N[C@H]1CSSC[C@@H](C(N)=O)NC(=O)CNC1=O)[C@@H](C)O)C(C)C
notes: spacer between the N-terminal biotin and the peptide, printed as Ser-Gly-Ser-Gly; also called 24N CGC S-S; 24N S-S; source: synthetic peptide (Mimotopes or Bachem), synthesized in the disulfide form; also made from the reduced peptide by oxidation with 1 mM H2O2; not shown: biotin, N-terminal, kept
p67^phox(1–212) [10]
  binding result: binds

B5: Nox2 peptide 24 analog with CGC replaced by CysGlyHisCys, intramolecular disulfide bond between cysteines 369 and 372 (peptide)
peptide: Biotin-SGSGIVGDWTEGLFNACGHC-NH2
modifications: disulfide 17-20
SMILES: CC[C@H](C)[C@H](NC(=O)CNC(=O)[C@H](CO)NC(=O)CNC(=O)[C@H](CO)NC(=O)CCCC[C@@H]1SC[C@@H]2NC(=O)N[C@@H]21)C(=O)N[C@H](C(=O)NCC(=O)N[C@@H](CC(=O)O)C(=O)N[C@@H](Cc1c[nH]c2ccccc12)C(=O)N[C@H](C(=O)N[C@@H](CCC(=O)O)C(=O)NCC(=O)N[C@@H](CC(C)C)C(=O)N[C@@H](Cc1ccccc1)C(=O)N[C@@H](CC(N)=O)C(=O)N[C@@H](C)C(=O)N[C@H]1CSSC[C@@H](C(N)=O)NC(=O)[C@H](Cc2c[nH]cn2)NC(=O)CNC1=O)[C@@H](C)O)C(C)C
notes: spacer between the N-terminal biotin and the peptide, printed as Ser-Gly-Ser-Gly; also called 24N CGHC S-S (disulfide form); source: synthetic peptide (Mimotopes or Bachem), synthesized in the disulfide form; also made from the reduced peptide by oxidation with 1 mM H2O2; not shown: biotin, N-terminal, kept
p67^phox(1–212) [10]
  binding result: binds

B6: Nox2 peptide 24 analog with CGC replaced by CysGlyProCys, intramolecular disulfide bond between cysteines 369 and 372 (peptide)
peptide: Biotin-SGSGIVGDWTEGLFNACGPC-NH2
modifications: disulfide 17-20
SMILES: CC[C@H](C)[C@H](NC(=O)CNC(=O)[C@H](CO)NC(=O)CNC(=O)[C@H](CO)NC(=O)CCCC[C@@H]1SC[C@@H]2NC(=O)N[C@@H]21)C(=O)N[C@H](C(=O)NCC(=O)N[C@@H](CC(=O)O)C(=O)N[C@@H](Cc1c[nH]c2ccccc12)C(=O)N[C@H](C(=O)N[C@@H](CCC(=O)O)C(=O)NCC(=O)N[C@@H](CC(C)C)C(=O)N[C@@H](Cc1ccccc1)C(=O)N[C@@H](CC(N)=O)C(=O)N[C@@H](C)C(=O)N[C@H]1CSSC[C@@H](C(N)=O)NC(=O)[C@@H]2CCCN2C(=O)CNC1=O)[C@@H](C)O)C(C)C
notes: spacer between the N-terminal biotin and the peptide, printed as Ser-Gly-Ser-Gly; also called 24N CGPC S-S (disulfide form); source: synthetic peptide (Mimotopes or Bachem), synthesized in the disulfide form; also made from the reduced peptide by oxidation with 1 mM H2O2; not shown: biotin, N-terminal, kept
p67^phox(1–212) [10]
  binding result: binds

Source: paper PMC4316792, “The dehydrogenase region of the NADPH oxidase component Nox2 acts as a protein disulfide isomerase (PDI) resembling PDIA3 with a role in the binding of the activator protein p67^phox” (Frontiers in Chemistry, 2015)
